The target in the experiment is T1, human GPR40 (Homo sapiens, UniProt O14842).
T1 construct: expressed in transfected cells
T1 sequence (O14842 whole entry): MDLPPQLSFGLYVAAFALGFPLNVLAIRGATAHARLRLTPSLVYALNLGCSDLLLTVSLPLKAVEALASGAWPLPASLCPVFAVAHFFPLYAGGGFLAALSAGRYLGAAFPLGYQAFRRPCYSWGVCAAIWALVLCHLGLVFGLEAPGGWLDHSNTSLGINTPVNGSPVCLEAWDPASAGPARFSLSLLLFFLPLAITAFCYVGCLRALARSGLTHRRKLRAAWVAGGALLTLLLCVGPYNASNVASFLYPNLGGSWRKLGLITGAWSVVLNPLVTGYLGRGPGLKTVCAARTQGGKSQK
Put plainly: Evaluation of human GPR40 agonist activity with increase in intracellular Ca2+ concentration as an index (FLIPR Tetra). Type of experiment: cell-based. The conditions noted are these: test compound 1 μM; CHO(dhfr−) cells stably expressing human GPR40; 100% = 1 μM WO2009/048527 Example 99.2, 0% = DMSO. How it is done: Evaluation of Human GPR40 Agonist Activity with Increase in Intracellular Ca^2+ Concentration as an Index
CHO(dhfr−) cells that stably expressed human GPR40 were suspended in MEMα (Nikken Bio Medical Laboratory) containing 10% dialysis serum (GEMINI BIO-PRODUCTS), 10 mM HEPES (Invitrogen), 100 U/mL penicillin, 100 μg/mL streptomycin (Invitrogen), and plated on a 384 well black/clear cell culture plate at 10,000 cells/well. After culture overnight in a CO2 incubator at 37° C., the culture supernatant was removed, and a loading buffer [dye attached to Calcium 5 Assay Kit (Molecular Devices) was dissolved in an assay buffer (20 mM HEPES, 0.2% fatty acid-free BSA (Sigma-Aldrich), 2.5 mM probenecid (DOJINDO)-containing HBSS (Invitrogen)) added with 0.025% Cremophor EL (DOJINDO)] was added at 37.5 μL/well. After incubation in a CO2 incubator at 37° C. for 1 hr, the cells were stood at room temperature for 15 min, an assay buffer containing the test compound at a final concentration of 1 μM was added at 12.5 μL/well in FLIPR Tetra (Molecular Devices), and the fluorescence amount was successively measured. Human GPR40 agonist activity calculated using an increase in the intracellular Ca^2+ concentration as an index, wherein the activity of 1 μM of the compound described in WO 2009/048527 (WO2009/048527 Example 99.2) was 100%, and the activity when DMSO was added instead of the test compound was 0%.
`COc1ccc(F)c(-c2ncc(COc3cc(C(CC(=O)O)C4CC4)c(F)cn3)cc2CC2(C#N)CCCC2)c1` (stereo not shown) [Example 44, 3-(2-((5-((1-cyanocyclopentyl)methyl)-6-(2-fluoro-5-methoxyphenyl)pyridin-3-yl)methoxy)-5-fluoropyridin-4-yl)-3-cyclopropylpropanoic acid]: the “Human GPR40 agonist activity (increase in intracellular Ca2+ concentration)” value turned out to be 107%.
Regarding `COc1ccc(F)c(-c2ncc(COc3cc(C(CC(=O)O)C4CC4)ncn3)cc2OCC(C)(C)C)c1` (stereo not shown) [Example 36, 3-cyclopropyl-3-(6-((5-(2,2-dimethylpropoxy)-6-(2-fluoro-5-methoxyphenyl)pyridin-3-yl)methoxy)pyrimidin-4-yl)propanoic acid], the activation at 1 µM turned out to be 106%.
Still for that read-out and setting: the result for `COc1ccc(F)c(-c2ccc(COc3ccc(OC)c(CCC(=O)O)c3)nc2CC(C)(C)C)c1` [Example 18, 3-(5-((6-(2,2-dimethylpropyl)-5-(2-fluoro-5-methoxyphenyl)pyridin-2-yl)methoxy)-2-methoxyphenyl)propanoic acid] reads 109%; that for `COc1ccc(F)c(-c2ccc(COc3cc(C(CC(=O)O)C4CC4)ccn3)nc2CC(C)(C)C)c1` (stereo not shown) [Example 30, 3-cyclopropyl-3-(2-((6-(2,2-dimethylpropyl)-5-(2-fluoro-5-methoxyphenyl)pyridin-2-yl)methoxy)pyridin-4-yl)propanoic acid], 112%; that for `COc1ccc(F)c(-c2ccc(COc3cccc(C(CC(=O)O)C4CC4)c3)nc2CC(C)(C)C)c1` (stereo not shown) [Example 11, 3-cyclopropyl-3-(3-((6-(2,2-dimethylpropyl)-5-(2-fluoro-5-methoxyphenyl)pyridin-2-yl)methoxy)phenyl)propanoic acid], 100%.
Take `COc1ccc(F)c(-c2ccc(COc3ccc(C)c(CCC(=O)O)c3)nc2CC(C)(C)C)c1` [Example 17, 3-(5-((6-(2,2-dimethylpropyl)-5-(2-fluoro-5-methoxyphenyl)pyridin-2-yl)methoxy)-2-methylphenyl)propanoic acid]: the activation at 1 µM worked out at 109%.
Compound `COc1ccc(F)c(-c2ccc(COc3cc(C(CC(=O)O)C4CC4)ncn3)nc2OCC(C)C)c1` (stereo not shown) [Example 2, 3-cyclopropyl-3-(6-((5-(2-fluoro-5-methoxyphenyl)-6-isobutoxypyridin-2-yl)methoxy)pyrimidin-4-yl)propanoic acid] registered an activation at 1 µM of 107%.
Still for that read-out and setting: for `COc1ccc(F)c(-c2ncc(COc3cc(C(CC(=O)O)C4CC4)ncn3)cc2OCC(C)C)c1` (stereo not shown) [Example 32, 3-cyclopropyl-3-(6-((6-(2-fluoro-5-methoxyphenyl)-5-isobutoxypyridin-3-yl)methoxy)pyrimidin-4-yl)propanoic acid] the value was 104%; for `COc1ccc(F)c(-c2ncc(COc3cc(C(CC(=O)O)C4CC4)ncn3)cc2OCCC(F)(F)F)c1` (stereo not shown) [Example 37, 3-cyclopropyl-3-(6-((6-(2-fluoro-5-methoxyphenyl)-5-(3,3,3-trifluoropropoxy)pyridin-3-yl)methoxy)pyrimidin-4-yl)propanoic acid], 101%; for `COc1cc(CCC(=O)O)cc(OCc2ccc(-c3cc(OC)ccc3F)c(CC(C)(C)C)n2)c1` [Example 15, 3-(3-((6-(2,2-dimethylpropyl)-5-(2-fluoro-5-methoxyphenyl)pyridin-2-yl)methoxy)-5-methoxyphenyl)propanoic acid], 103%.
Same read-out and setting: the result for `COc1ccc(F)c(-c2ncc(COc3cccc(C(CC(=O)O)C4CC4)c3)cc2CC(C)(C)C)c1` (stereo not shown) [Example 34, 3-cyclopropyl-3-(3-((5-(2,2-dimethylpropyl)-6-(2-fluoro-5-methoxyphenyl)pyridin-3-yl)methoxy)phenyl)propanoic acid] reads 118%.
In the case of `COc1ccc(F)c(-c2ccc(COc3cccc(CCC(=O)O)c3)nc2CC(C)(C)C)c1` [Example 29, 3-(3-((6-(2,2-dimethylpropyl)-5-(2-fluoro-5-methoxyphenyl)pyridin-2-yl)methoxy)phenyl)propanoic acid], the activation at 1 µM came to 103%.
The same measure, in the same setting: the result for `COc1ccc(F)c(-c2ccc(COc3cc(F)cc(CCC(=O)O)c3)nc2CC(C)(C)C)c1` [Example 16, 3-(3-((6-(2,2-dimethylpropyl)-5-(2-fluoro-5-methoxyphenyl)pyridin-2-yl)methoxy)-5-fluorophenyl)propanoic acid] reads 109%.
On the same count and under the same terms, the result for `COc1ccc(F)c(-c2ccc(COc3cc(C)cc(CCC(=O)O)c3)nc2CC(C)(C)C)c1` [Example 23, Sodium 3-(3-((6-(2,2-dimethylpropyl)-5-(2-fluoro-5-methoxyphenyl)pyridin-2-yl)methoxy)-5-methylphenyl)propanoate] reads 99%.
On the same count and under the same terms, the result for `COc1ccc(F)c(-c2ccc(COc3cc(C(CC(=O)O)C4CC4)ccc3OC)nc2CC(C)(C)C)c1` (stereo not shown) [Example 12, 3-cyclopropyl-3-(3-((6-(2,2-dimethylpropyl)-5-(2-fluoro-5-methoxyphenyl)pyridin-2-yl)methoxy)-4-methoxyphenyl)propanoic acid] reads 112%; that for `COc1ccc(F)c(-c2ccc(COc3cc(C(CC(=O)O)C4CC4)ncn3)nc2CC(C)(C)C)c1` (stereo not shown) [Example 8, 3-cyclopropyl-3-(6-((6-(2,2-dimethylpropyl)-5-(2-fluoro-5-methoxyphenyl)pyridin-2-yl)methoxy)pyrimidin-4-yl)propanoic acid], 106%.
Regarding `COc1ccc(F)c(-c2ccc(COc3cccc(C(CC(=O)O)C4CC4)c3)nc2CC(C)(C)C)c1` (single isomer, unassigned) [Example 7, 3-cyclopropyl-3-(3-((6-(2,2-dimethylpropyl)-5-(2-fluoro-5-methoxyphenyl)pyridin-2-yl)methoxy)phenyl)propanoic acid], the “Human GPR40 agonist activity (increase in intracellular Ca2+ concentration)” value is listed as 106%.
`COc1ccc(F)c(-c2cnc(COc3cc(C(CC(=O)O)C4CC4)ncn3)cc2OCC(C)C)c1` (stereo not shown) [Example 6, 3-cyclopropyl-3-(6-((5-(2-fluoro-5-methoxyphenyl)-4-isobutoxypyridin-2-yl)methoxy)pyrimidin-4-yl)propanoic acid] had an activation at 1 µM of 98%.
Still for that read-out and setting: the result for `COc1ccc(F)c(-c2ccc(COc3cc(CCC(=O)O)ccc3C)nc2CC(C)(C)C)c1` [Example 13, 3-(3-((6-(2,2-dimethylpropyl)-5-(2-fluoro-5-methoxyphenyl)pyridin-2-yl)methoxy)-4-methylphenyl)propanoic acid] reads 110%.
`COc1ccc(F)c(-c2ncc(COc3cccc(C(CC(=O)O)C4CC4)c3)cc2OCC(C)C)c1` (stereo not shown) [Example 31, 3-cyclopropyl-3-(3-((6-(2-fluoro-5-methoxyphenyl)-5-isobutoxypyridin-3-yl)methoxy)phenyl)propanoic acid] displayed an activation at 1 µM of 104%.
Compound `COc1ccc(F)c(-c2ccc(COc3cccc(C(CC(=O)O)C4CC4)c3)nc2OCC(C)C)c1` (stereo not shown) [Example 1, 3-cyclopropyl-3-(3-((5-(2-fluoro-5-methoxyphenyl)-6-isobutoxypyridin-2-yl)methoxy)phenyl)propanoic acid] registered an activation at 1 µM of 100%.
The same measure, in the same setting: for `COc1ccc(F)c(-c2ccc(COc3ccc(F)c(CCC(=O)O)c3)nc2CC(C)(C)C)c1` [Example 19, 3-(5-((6-(2,2-dimethylpropyl)-5-(2-fluoro-5-methoxyphenyl)pyridin-2-yl)methoxy)-2-fluorophenyl)propanoic acid] the value was 109%.

Values taken from patent US9181186B2, “Aromatic ring compound” (TAKEDA PHARMACEUTICAL COMPANY LIMITED, priority 2012, dated 2015).
